PubChem BioAssay (NCI)
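Exposure lasted 48 hours, with cells grown in 96-well plates and compounds tested at five concentrations. At the GI50, growth is halved. At the TGI there is no net growth.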

Tests used:
Test in all cases: NCI tumour cell line growth inhibition, 48 h
HT29 colon = system: HT29 colon
DU-145 prostate = system: DU-145 prostate
TK-10 renal = system: TK-10 renal
A549 NSCLC = system: A549 NSCLC
SN12C renal = system: SN12C renal
OVCAR-5 ovarian = system: OVCAR-5 ovarian
SR leukemia = system: SR leukemia
COLO 205 colon = system: COLO 205 colon
NCI/ADR-RES ovarian = system: NCI/ADR-RES ovarian
HCT-116 colon = system: HCT-116 colon
CAKI-1 renal = system: CAKI-1 renal
NCI-H522 lung = system: NCI-H522 lung
MDA-MB-435 = system: MDA-MB-435
UO-31 renal = system: UO-31 renal
UACC-257 melanoma = system: UACC-257 melanoma
CCRF-CEM leukemia = system: CCRF-CEM leukemia
HL-60(TB) leukemia = system: HL-60(TB) leukemia
SNB-75 CNS = system: SNB-75 CNS
SF-268 CNS = system: SF-268 CNS
HOP-92 NSCLC = system: HOP-92 NSCLC
SK-MEL-2 melanoma = system: SK-MEL-2 melanoma
U251 CNS = system: U251 CNS
PC-3 prostate = system: PC-3 prostate
RPMI-8226 leukemia = system: RPMI-8226 leukemia
LOX IMVI melanoma = system: LOX IMVI melanoma
ACHN renal = system: ACHN renal
786-0 renal = system: 786-0 renal
MDA-MB-231 breast = system: MDA-MB-231 breast
OVCAR-8 ovarian = system: OVCAR-8 ovarian

## OCc1cn(Cc2ccc(Cl)cc2)c2ccccc12
HT29 colon
  GI50: 1.35 µM
  TGI: 17.8 µM
DU-145 prostate
  GI50: 8.11 µM
  TGI: 31.8 µM
TK-10 renal
  GI50: < 0.0115 µM
  TGI: 0.195 µM
A549 NSCLC
  GI50: 2.64 µM
  TGI: 40.8 µM
SN12C renal
  GI50: 4.66 µM
  TGI: 21.6 µM
OVCAR-5 ovarian
  GI50: < 0.01 µM
  TGI: 0.613 µM
SR leukemia
  GI50: 15.9 µM
  TGI: 71.7 µM
COLO 205 colon
  GI50: 0.615 µM
  TGI: 6.89 µM
NCI/ADR-RES ovarian
  GI50: 8.41 µM
  TGI: 30.8 µM
HCT-116 colon
  GI50: 0.0393 µM
  TGI: 12 µM
CAKI-1 renal
  TGI: 2.15 µM
NCI-H522 lung
  GI50: 3.21 µM
  TGI: 14.8 µM
MDA-MB-435
  GI50: 17.1 µM
  TGI: 43.9 µM
UO-31 renal
  GI50: 1.66 µM
  TGI: 13 µM
UACC-257 melanoma
  GI50: 0.22 µM
  TGI: 0.517 µM
CCRF-CEM leukemia
  GI50: 2.2 µM
  TGI: 16.8 µM
HL-60(TB) leukemia
  GI50: 3.9 µM
  TGI: 21.4 µM
SNB-75 CNS
  GI50: 4.52 µM
  TGI: 19.9 µM
SF-268 CNS
  GI50: 12.3 µM
  TGI: 36.7 µM
HOP-92 NSCLC
  GI50: 3.03 µM
  TGI: 19.7 µM
SK-MEL-2 melanoma
  GI50: 0.986 µM
  TGI: 6.72 µM
U251 CNS
  GI50: 2.62 µM
  TGI: 22.6 µM
PC-3 prostate
  GI50: 15 µM
  TGI: 47.1 µM
RPMI-8226 leukemia
  GI50: 0.636 µM
  TGI: 5.23 µM
LOX IMVI melanoma
  GI50: 4.26 µM
  TGI: 16.1 µM
ACHN renal
  GI50: 3.57 µM
  TGI: 34.2 µM
786-0 renal
  GI50: 2.51 µM
  TGI: 21.2 µM
MDA-MB-231 breast
  GI50: 6.02 µM
  TGI: 25.6 µM
OVCAR-8 ovarian
  GI50: 4.36 µM
  TGI: 40 µM
